“And” between values parts separate entries of the source, which are not always exact repeats. Identical values can stand only once.
biological target: SARS-CoV-2 Main Protease (SARS-CoV-2) (UniProt P0DTD1)

Row | Compound | IC50
1 | CS(=O)(=O)c1ccc2c(NC(=O)C3CN(CC(=O)NC4COC4)C(=O)c4ccc(Cl)cc43)cncc2c1 (stereo not given) | 0.866 µM
2 | Cn1cc(CN2Cc3ccc(Cl)cc3C(C(=O)Nc3cncc4ccc(F)cc34)C2)nn1 (stereo not given) | 0.914 µM
3 | COC1(c2cccc(Cl)c2)CCN(c2cncc3ccccc23)C1=O (stereo not given) | 0.467 µM
4 | O=C(Cc1cccc(Cl)c1)Nc1cncn2cnnc12 | > 99.5 µM
5 | CC(C)=CCC[C@@](C)(O)[C@H]1CC[C@]2(C)[C@@H]1[C@H](O)C[C@@H]1[C@@]3(C)CC[C@H](O[C@@H]4O[C@H](CO)[C@@H](O)[C@H](O)[C@H]4O)C(C)(C)[C@@H]3CC[C@]12C (stereo in doubt) | > 99.5 µM
6 | O=C(Cc1cc(Cl)cc(Nc2cnc(Br)cn2)c1)Nc1cncc2ccccc12 | 2.07 µM
7 | Cc1ccncc1CC(=O)Nc1cccc(Cl)c1 | 29.9 µM
8 | CC(C)C[C@H]1CN(C(=O)CCl)CCN1Cc1cccc(Cl)c1 (stereo in doubt) | 0.759 µM and 0.641 µM
9 | Cc1nc2sccn2c1CN(C)C(=O)c1cn2ccccc2n1 | > 99.5 µM
10 | CC(C)(C)c1ccc(N(C(=O)c2cocn2)C(C(=O)NCC(=O)Nc2cccc([N+](=O)[O-])c2)c2cccnc2)cc1 (stereo not given) | 14.4 µM
11 | O=C(Nc1cncc2ccccc12)C1(CCC2CC2)CCOc2ccc(Cl)cc21 (stereo not given) | 40.7 µM
12 | O=C(Cc1cc(Cl)cc(Nc2ncccc2C(F)(F)F)c1)Nc1cncc2ccccc12 | 1.94 µM
13 | Cn1nncc1CC(=O)NC(c1ccccc1)c1nc2ccccc2n1C (stereo not given) | 35.7 µM
14 | Cn1ccc2cncc(NC(=O)Cc3cccc(Cl)c3)c21 | 1.45 µM
15 | N#CCc1cccc(NC(=O)c2cnn3cc(Br)cnc23)n1 | > 99.5 µM
16 | O=C(NCCc1cccc(F)c1)C(c1cccnc1)N(C(=O)c1cocn1)[C@H]1C[C@H](Oc2ccccc2)C1 (stereo not given in full) | > 99.5 µM
17 | O=C(Cn1ccc(=O)[nH]c1=O)OCc1ccc(-c2ccccc2)cc1 | > 99.5 µM
18 | Cn1c(=O)c2cc(C(=O)N(c3ccc(C(C)(C)C)cc3)C(C(=O)NCCc3cccc(F)c3)c3cccnc3)n(C)c2n(C)c1=O (stereo not given) | > 99.5 µM
19 | CN1CC(C#N)(CS(=O)(=O)N2Cc3ccc(Cl)cc3C(C(=O)Nc3cncc4ccccc34)C2)C1 (stereo not given) | 0.151 µM
20 | CS(=O)(=O)N1CCc2ccc(CN3CCN(C(=O)CCl)CC3)cc2C1 | 40.2 µM
21 | COCCNC(=O)C(c1cccnc1)N(C(=O)c1cocn1)c1ccc(C(C)(C)C)cc1 (stereo not given) | 8.46 µM
22 | O=C1CC(C(=O)Nc2cncc3ccccc23)c2cc(Br)ccc2N1 (stereo not given) | 1.12 µM
23 | CN(C)c1ccc(N(Cc2ccsc2)C(=O)Cn2nnc3ccccc32)cc1 | 1.79 µM

Row | Compound | IC50
24 | O=C(Cn1nnc2ccccc21)N(Cc1ccsc1)c1ccc(N2CCCCC2)cc1 | 6.56 µM
25 | O=C(CN1CC(C(=O)Nc2cncc3ccccc23)c2cc(Cl)ccc2C1=O)NC1CCC1 (stereo not given) | 0.129 µM
26 | Cc1nc(C2CC2)oc1C(=O)N(c1ccc(C(C)(C)C)cc1)C(C(=O)NCCc1cccc(F)c1)c1cccnc1 (stereo not given) | > 99.5 µM
27 | Cn1ccn2c(CNC(=O)c3ccc4ncsc4c3)nnc2c1=O | > 99.5 µM
28 | O=C(c1cncc2ccccc12)N1CCN(c2cccc(Cl)c2)CC1 | 1.6 µM
29 | COc1cc(Cl)nc(Nc2cc(Cl)cc(CC(=O)Nc3cncc4ccccc34)c2)n1 | 0.504 µM
30 | O=C(NCCc1cccc(F)c1)C(c1cccnc1)N(C(=O)c1cocn1)c1ccccc1 (stereo not given) | 89.2 µM
31 | CSCCNC(=O)C(c1cccnc1)N(C(=O)c1cocn1)c1ccc(C(C)(C)C)cc1 (stereo not given) | 2.45 µM
32 | C[C@H](C(=O)O)C(=O)SCCNC(=O)CCNC(=O)[C@H](O)C(C)(C)COP(=O)(O)OP(=O)(O)OC[C@H]1O[C@@H](n2cnc3c(N)ncnc32)[C@H](O)[C@@H]1OP(=O)(O)O (stereo in doubt) | > 99 µM
33 | Cc1ccncc1NC(=O)C(C)(C)c1cccc(Cl)c1 | 95.8 µM and 98.1 µM
34 | O=C(Cc1cc(Cl)cc(Nc2c(Cl)c(F)nc(F)c2Cl)c1)Nc1cncc2ccccc12 | 2.16 µM
35 | COc1ccc(N(C(=O)c2ccco2)C(C(=O)NCCc2cccc(F)c2)c2cccnc2)cc1NC(=O)C1CCCCC1 (stereo not given) | 62.7 µM
36 | Cn1nc2c(c1C(=O)N(c1ccc(C(C)(C)C)cc1)C(C(=O)NCCc1cccc(F)c1)c1cccnc1)CS(=O)(=O)CC2 (stereo not given) | > 99.5 µM
37 | CN1CCCC(N(C(=O)c2cocn2)C(C(=O)NCCc2cccc(F)c2)c2cccnc2)C1 (stereo not given) | > 99.5 µM
38 | N#Cc1ccc2c(NC(=O)Cc3cccc(Cl)c3)cncc2c1 | 9 µM
39 | COc1ccc(N(C(=O)c2cocn2)C(C(=O)NCCc2cccc(F)c2)c2cccnc2)cc1 (stereo not given) | 22.2 µM
40 | NS(=O)(=O)c1n[nH]cc1C(=O)NC[C@@]1(C(=O)Nc2cncc3ccccc23)CCOc2ccc(Cl)cc21 (stereo in doubt) | 1.99 µM
41 | Cc1cc(Nc2cc(Cl)cc(CC(=O)Nc3cncc4ccccc34)c2)c(F)cc1Br | 2.05 µM
42 | CCOC(=O)c1cccc(NC(=O)[C@@H]2CN(C(=O)CCl)CCN2S(=O)(=O)c2ccsc2)c1 (stereo in doubt) | 0.459 µM
43 | C=CC(=O)NCc1ccccc1S(=O)(=O)NC(C)(C)C | > 99.5 µM
44 | CCCc1cc2c(cc1S(=O)(=O)N1CCN(c3cccc(Cl)c3Cl)CC1)OCO2 | > 99.5 µM
45 | COC(=O)[C@H]1CC[C@@H](CNC(C(=O)Nc2cncc3ccccc23)c2cccc(Cl)c2)O1 (stereo in doubt) | 1.72 µM

From the COVID Moonshot data (paper PMC7615835)
